# Like-named read-outs stand apart in the source and are kept apart here.
# Assays:
# [1] = molecular target: T1, poly(ADP-ribose) polymerase (ADPRP) (Sus scrofa, UniProt I3LDH3); test: Inhibition of ADPRP enzyme activity; type: biochemical, pig
# T1 construct: ADPRP was prepared from pig thymus using the method of Khan and Shall; from tissue; host or cells: pig thymus
# Description: ADPRP was prepared from pig thymus using the method of Khan and Shall (Biochem. Soc. Transactions 4:778 (1976)) with various modifications. Enzyme activity was approximately linear up to 15-20 minutes with NAD substrate concentration of 25 µM. Typical maximum enzyme activity was around 0.003 nmol product formed/minute in the assay (i.e. approximately 0.1% of substrate utilized). KM was approximately 25 µM.
# Using a standard assay mix containing 2mM dithiothreitol (DTT) and […] crude enzyme/ml incubation, three experiments were performed with 6,6'-dithiodinicotinic acid added at concentrations varying from 5 µg/ml to 600 µg/ml (i.e. 1/60th molar equivalent of DTT to 2 molar equivalents). […] INHIBITION % OF CONTROLS
# These are values for individual incubations which were stopped at either 7.5, 15, or 20 minutes.
# [2] = system: Salmonella Typhimurium bacteria T-100; test: microbe, parasite or virus in culture; type: cell-based; conditions: for Number of Colonies Per Plate With Inhibitor: inhibitor 0.3 mg/plate added one hour before carcinogen, average of 3; for inhibition at 0.3 mg/plate: Salmonella enterica, TYPHIMURIUM
# [3] = system: metastases; conditions: mice; Grassetti 1970, Nature 228:282; cited from earlier work
# [4] = Observed toxicity / tolerability; conditions: can be taken in doses of at least approximately 0.1 gram per day for indefinite periods
# Text: It can be taken in doses of at least approximately 0.1 gram per day for indefinite periods. This fills the requirements for a non-toxic, low-cost chemopreventive agent, which could be administered orally.
# [5] = 2mM DTT, individual incubation, read-out: Percent Inhibition at: 7.5 min.
# [6] = 2mM DTT, individual incubation, read-out: Percent Inhibition at: 15 min.
# T1 sequence (I3LDH3 1-1017): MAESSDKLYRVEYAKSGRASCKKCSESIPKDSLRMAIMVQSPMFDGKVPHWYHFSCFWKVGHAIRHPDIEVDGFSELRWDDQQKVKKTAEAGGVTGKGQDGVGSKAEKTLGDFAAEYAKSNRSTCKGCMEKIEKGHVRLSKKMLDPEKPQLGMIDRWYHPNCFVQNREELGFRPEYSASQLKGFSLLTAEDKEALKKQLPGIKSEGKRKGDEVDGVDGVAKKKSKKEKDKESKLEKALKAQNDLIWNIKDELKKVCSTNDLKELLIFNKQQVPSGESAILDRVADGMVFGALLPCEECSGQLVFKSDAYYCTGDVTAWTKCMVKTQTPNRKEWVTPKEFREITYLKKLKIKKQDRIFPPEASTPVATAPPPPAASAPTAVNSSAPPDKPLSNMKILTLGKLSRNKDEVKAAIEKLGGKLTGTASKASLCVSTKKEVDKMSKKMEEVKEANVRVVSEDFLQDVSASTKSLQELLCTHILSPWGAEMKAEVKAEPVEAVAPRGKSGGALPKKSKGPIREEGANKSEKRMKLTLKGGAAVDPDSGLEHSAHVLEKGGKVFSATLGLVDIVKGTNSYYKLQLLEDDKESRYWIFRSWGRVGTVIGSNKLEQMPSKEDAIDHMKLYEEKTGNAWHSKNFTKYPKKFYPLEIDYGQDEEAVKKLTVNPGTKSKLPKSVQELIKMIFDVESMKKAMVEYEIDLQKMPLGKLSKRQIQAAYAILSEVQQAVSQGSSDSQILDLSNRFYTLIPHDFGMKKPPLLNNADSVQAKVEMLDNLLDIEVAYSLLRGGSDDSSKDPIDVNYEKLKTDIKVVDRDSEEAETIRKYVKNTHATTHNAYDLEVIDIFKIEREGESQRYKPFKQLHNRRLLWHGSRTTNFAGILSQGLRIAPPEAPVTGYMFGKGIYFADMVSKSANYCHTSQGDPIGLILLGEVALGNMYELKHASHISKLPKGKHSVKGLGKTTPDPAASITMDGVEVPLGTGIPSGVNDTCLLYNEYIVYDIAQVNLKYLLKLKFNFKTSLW
compound,measurement,setting,value
"O=C(O)c1ccc(SSc2ccc(C(=O)O)cn2)nc1 [6,6'-dithiodinicotinic acid]",inhibition at 5 µg/mL,[1]; [5],0%
same,inhibition at 5 µg/mL,[1]; [6],14%
same,inhibition at 25 µg/mL,[1]; [5],0%
same,inhibition at 25 µg/mL,[1]; [6],0%
same,inhibition at 50 µg/mL,[1]; [5],37%
same,inhibition at 50 µg/mL,[1]; [6],38%
same,inhibition at 100 µg/mL,[1]; [5],68%
same,inhibition at 100 µg/mL,[1]; [6],54%
same,inhibition at 150 µg/mL,"[1]; 150 µg/ml, 2mM DTT, individual incubation, read-out: Percent Inhibition at: 7.5 min.",88%
same,inhibition at 150 µg/mL,"[1]; 150 µg/ml, 2mM DTT, individual incubation, read-out: Percent Inhibition at: 15 min.",70%
same,inhibition at 150 µg/mL,"[1]; 150 µg/ml, 2mM DTT, individual incubation, read-out: Percent Inhibition at: 20 min.",90%
same,extent of conversion of substrate to bound product after addition of excess DTT,"[1]; 150 µg/ml, excess DTT added to incubation",did not increase
same,inhibition at 300 µg/mL,"[1]; 300 µg/ml, 2mM DTT, individual incubation, read-out: Percent Inhibition at: 20 min.",93%
same,inhibition at 600 µg/mL,"[1]; 600 µg/ml, 2mM DTT, individual incubation, read-out: Percent Inhibition at: 20 min.",83%
same,inhibition of ADPRP,"[1]; at 50 µg/ml, 2mM DTT",Significant and specific inhibition
same,inhibition of ADPRP,[1]; at 150 µg/ml and above (0.5 molar equivalents of DTT and above),almost complete inhibition
same,inhibition of ADPRP,[1]; at 5 and 25 µg/ml,No inhibition
same,Number of Colonies Per Plate With Inhibitor,[2]; 2-Aflatoxin 0 (control) µg/plate,104
same,Number of Colonies Per Plate With Inhibitor,[2]; 2-Aflatoxin 20 µg/plate,188
same,Number of Colonies Per Plate With Inhibitor,[2]; 2-Aflatoxin 50 µg/plate,358
same,Number of Colonies Per Plate With Inhibitor,[2]; 2-Aflatoxin 100 µg/plate,471
same,Number of Colonies Per Plate With Inhibitor,[2]; 2-Aminofluorene 0 (control) µg/plate,141
same,Number of Colonies Per Plate With Inhibitor,[2]; 2-Aminofluorene 5.0 µg/plate,705
same,Number of Colonies Per Plate With Inhibitor,[2]; 2-Aminofluorene 15.0 µg/plate,655
same,Number of Colonies Per Plate With Inhibitor,[2]; 2-Aminofluorene 25.0 µg/plate,791
same,Number of Colonies Per Plate With Inhibitor,[2]; Benzo-[a]-pyrene 0 (control) µg/plate,111
same,Number of Colonies Per Plate With Inhibitor,[2]; Benzo-[a]-pyrene 2.5 µg/plate,339
same,Number of Colonies Per Plate With Inhibitor,[2]; Benzo-[a]-pyrene 5.0 µg/plate,446
same,Number of Colonies Per Plate With Inhibitor,[2]; Benzo-[a]-pyrene 10.0 µg/plate,488
same,inhibition at 0.3 mg/plate,"[2]; 2-Aminofluorene 5.0 µg/plate, inhibitor 0.3 mg/plate, read-out: Decrease (%)",10%
same,inhibition at 0.3 mg/plate,"[2]; Benzo-[a]-pyrene 2.5 µg/plate, inhibitor 0.3 mg/plate, read-out: Decrease (%)",74%
same,inhibition at 0.3 mg/plate,"[2]; Benzo-[a]-pyrene 5.0 µg/plate, inhibitor 0.3 mg/plate, read-out: Decrease (%)",62%
same,inhibition at 0.3 mg/plate,"[2]; Benzo-[a]-pyrene 10.0 µg/plate, inhibitor 0.3 mg/plate, read-out: Decrease (%)",58%
same,inhibition at 0.3 mg/plate,"[2]; read-out: Decrease (%), 2-Aflatoxin 0 (control) µg/plate, inhibitor 0.3 mg/plate",0%
same,inhibition at 0.3 mg/plate,"[2]; read-out: Decrease (%), 2-Aflatoxin 20 µg/plate, inhibitor 0.3 mg/plate",63%
same,inhibition at 0.3 mg/plate,"[2]; read-out: Decrease (%), 2-Aflatoxin 50 µg/plate, inhibitor 0.3 mg/plate",68%
same,inhibition at 0.3 mg/plate,"[2]; read-out: Decrease (%), 2-Aflatoxin 100 µg/plate, inhibitor 0.3 mg/plate",72%
same,inhibition at 0.3 mg/plate,"[2]; read-out: Decrease (%), 2-Aminofluorene 0 (control) µg/plate, inhibitor 0.3 mg/plate",0%
same,inhibition at 0.3 mg/plate,"[2]; read-out: Decrease (%), 2-Aminofluorene 15.0 µg/plate, inhibitor 0.3 mg/plate",72%
same,inhibition at 0.3 mg/plate,"[2]; read-out: Decrease (%), 2-Aminofluorene 25.0 µg/plate, inhibitor 0.3 mg/plate",63%
same,inhibition at 0.3 mg/plate,"[2]; read-out: Decrease (%), Benzo-[a]-pyrene 0 (control) µg/plate, inhibitor 0.3 mg/plate",0%
same,inhibition at 0.3 mg/plate,"[2]; read-out: number of mutants decreased, present in the culture prior to addition of carcinogen (benzo-[a]-pyrene, 2-aflatoxin, or 2-aminofluorene)",~70%
same,mutagenic effect of carcinogenic chemicals,"[2]; benzo-[a]-pyrene, 2-aflatoxin, and 2-aminofluorene",greatly diminished
same,prevention of metastases,[3],known to prevent metastases in mice
same,toxicity,[4],not a toxic compound
